Assay results published in patent US20090221829A1 (priority 2005, published 2009).

Tested on: Candida albicans(KCTC 1940), Aspergillus niger (ATCC 9642) and Saccharomyces cerevisiae
Assay: Relative antifungal activity by agar dilution method (vs Miconazole);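 further: scores 5 to 7 mean a lower fungicidal concentration than Miconazole so higher is more potent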
Assay type: cell-based
Conditions: agar dilution method; fungicidal concentration relative to control drug Miconazole (=4)
Source text: Novel compounds represented by the above chemical formula (I), and the relative activities in accordance with the agar dilution method in Sabouraud dextrose agar media, Czapek agar media and Yeast Extract-Peptone-Dextrose agar media for Candida albicans(KCTC 1940), Aspergillus niger (ATCC 9642) and Saccharomyces cerevisiae are described respectively in following Table 1.

Compound	Relative Activity
COc1cc2c(cc1OC)CC[N+](Cc1ccccc1F)=C2.[Cl-] [Compound No. 1, 2-(2-fluorophenyl)methyl-3,4-dihydro-6,7-dimethoxy-isoquinolinium chloride]	6
COc1cc2c(cc1OC)C(C)=[N+](Cc1ccccc1F)CC2.[Cl-] [Compound No. 2, 1-methyl-2-(2-fluorophenyl)methyl-3,4-dihydro-6,7-dimethoxy-isoquinolinium chloride]	6
COc1cc2c(cc1OC)C(CCl)=[N+](Cc1ccccc1F)CC2.[Cl-] [Compound No. 3, 1-chloromethyl-2-(2-fluorophenyl)methyl-3,4-dihydro-6,7-dimethoxy-isoquinolinium chloride]	6
CCC1=[N+](Cc2ccccc2F)CCc2cc(OC)c(OC)cc21.[Cl-] [Compound No. 4, 1-ethyl-2-(2-fluorophenyl)methyl-3,4-dihydro-6,7-dimethoxy-isoquinolinium chloride]	6
CCCC1=[N+](Cc2ccccc2F)CCc2cc(OC)c(OC)cc21.[Cl-] [Compound No. 5, 1-propyl-2-(2-fluorophenyl)methyl-3,4-dihydro-6,7-dimethoxyisoquinolinium chloride]	5
COc1cc2c(cc1OC)C(C(C)C)=[N+](Cc1ccccc1F)CC2.[Cl-] [Compound No. 6, 1-i-propyl-2-(2-fluorophenyl)methyl-3,4-dihydro-6,7-dimethoxyisoquinolinium chloride]	5
COc1cc2c(cc1OC)C(CCCCl)=[N+](Cc1ccccc1F)CC2.[Cl-] [Compound No. 7, 1-(3-chloropropyl)-2-(2-fluorophenyl)methyl-3,4-dihydro-6,7-dimethoxyisoquinolinium chloride]	5
COc1cc2c(cc1OC)C(CC(C)C)=[N+](Cc1ccccc1F)CC2.[Cl-] [Compound No. 8, 1-(2-methyl)propyl-2-(2-fluorophenyl)methyl-3,4-dihydro-6,7-dimethoxyisoquinolinium chloride]	5
CCCCCC1=[N+](Cc2ccccc2F)CCc2cc(OC)c(OC)cc21.[Cl-] [Compound No. 9, 1-n-pentyl-2-(2-fluorophenyl)methyl-3,4-dihydro-6,7-dimethoxyisoquinolinium chloride]	4
CCCCCCC1=[N+](Cc2ccccc2F)CCc2cc(OC)c(OC)cc21.[Cl-] [Compound No. 10, 1-n-hexyl-2-(2-fluorophenyl)methyl-3,4-dihydro-6,7-dimethoxyisoquinolinium chloride]	4
CCCCCCCCCCCCCCCC1=[N+](Cc2ccccc2F)CCc2cc(OC)c(OC)cc21.[Cl-] [Compound No. 13, 1-n-pentadecyl-2-(2-fluorophenyl)methyl-3,4-dihydro-6,7-dimethoxyisoquinolinium chloride]	2
COc1cc2c(cc1OC)C(c1ccccc1F)=[N+](Cc1ccccc1F)CC2.[Cl-] [Compound No. 14, 1-(2-fluorophenyl)-2-(2-fluorophenyl)methyl-3,4-dihydro-6,7-dimethoxyisoquinolinium chloride]	6
COc1cc2c(cc1OC)C(c1cccc(F)c1F)=[N+](Cc1ccccc1F)CC2.[Cl-] [Compound No. 15, 1-(2,3-difluorophenyl)-2-(2-fluorophenyl)methyl-3,4-dihydro-6,7-dimethoxyisoquinolinium chloride]	6
COc1cc2c(cc1OC)C(c1ccc(F)cc1F)=[N+](Cc1ccccc1F)CC2.[Cl-] [Compound No. 16, 1-(2,4-difluorophenyl)-2-(2-fluorophenyl)methyl-3,4-dihydro-6,7-dimethoxyisoquinolinium chloride]	6
COc1cc2c(cc1OC)C(c1ccc(F)c(F)c1)=[N+](Cc1ccccc1F)CC2.[Cl-] [Compound No. 17, 1-(3,4-difluorophenyl)-2-(2-fluorophenyl)methyl-3,4-dihydro-6,7-dimethoxyisoquinolinium chloride]	6
COc1cc2c(cc1OC)C(c1cccc(Cl)c1)=[N+](Cc1ccccc1F)CC2.[Cl-] [Compound No. 19, 1-(3-chlorophenyl)-2-(2-fluorophenyl)methyl-3,4-dihydro-6,7-dimethoxyisoquinolinium chloride]	6
COc1cc2c(cc1OC)C(c1ccc(Cl)cc1)=[N+](Cc1ccccc1F)CC2.[Cl-] [Compound No. 20, 1-(4-chlorophenyl)-2-(2-fluorophenyl)methyl-3,4-dihydro-6,7-dimethoxyisoquinolinium chloride]	6
CCCCc1ccc(C2=[N+](Cc3ccccc3F)CCc3cc(OC)c(OC)cc32)cc1.[Cl-] [Compound No. 21, 1-(4-n-butylphenyl)-2-(2-fluorophenyl)methyl-3,4-dihydro-6,7-dimethoxyisoquinolinium chloride]	6

Compound	Relative Activity
COc1cc2c(cc1OC)C(c1cccc(C(F)(F)F)c1)=[N+](Cc1ccccc1F)CC2.[Cl-] [Compound No. 23, 1-(3-trifluoromethylphenyl)-2-(2-fluorophenyl) methyl-3,4-dihydro-6,7-dimethoxyisoquinolinium chloride]	6
COc1cc2c(cc1OC)C(Cc1ccccc1F)=[N+](Cc1ccccc1F)CC2.[Cl-] [Compound No. 24, 1-(2-fluorophenyl)methyl-2-(2-fluorophenyl)methyl-3,4-dihydro-6,7-dimethoxyisoquinolinium chloride]	6
COc1cc2c(cc1OC)C(C)=[N+](Cc1ccc(C(F)(F)F)cc1)CC2.[Cl-] [Compound No. 26, 1-methyl-2-(4-trifluoromethylphenyl)methyl-3,4-dihydro-6,7-dimethoxyisoquinolinium chloride]	6
CCCCCC1=[N+](Cc2ccc(C(F)(F)F)cc2)CCc2cc(OC)c(OC)cc21.[Cl-] [Compound No. 27, 1-n-pentyl-2-(4-trifluoromethylphenyl)methyl-3,4-dihydro-6,7-dimethoxyisoquinolinium chloride]	4
CCCCCCCC1=[N+](Cc2ccc(C(F)(F)F)cc2)CCc2cc(OC)c(OC)cc21.[Cl-] [Compound No. 28, 1-n-heptyl-2-(4-trifluoromethylphenyl)methyl-3,4-dihydro-6,7-dimethoxyisoquinolinium chloride]	4
CCCCCCCCCCCC1=[N+](Cc2ccc(C(F)(F)F)cc2)CCc2cc(OC)c(OC)cc21.[Cl-] [Compound No. 29, 1-n-undecyl-2-(4-trifluoromethylphenyl)methyl-3,4-dihydro-6,7-dimethoxyisoquinolinium chloride]	1
CCCCCCCCCCCCCCCC1=[N+](Cc2ccc(C(F)(F)F)cc2)CCc2cc(OC)c(OC)cc21.[Cl-] [Compound No. 30, 1-n-pentadecyl-2-(4-trifluoromethylphenyl)methyl-3,4-dihydro-6,7-dimethoxyisoquinolinium chloride]	1
COc1cc2c(cc1OC)C(c1ccccc1F)=[N+](Cc1ccc(C(F)(F)F)cc1)CC2.[Cl-] [Compound No. 31, 1-(2-fluorophenyl)-2-(4-trifluoromethylphenyl)methyl-3,4-dihydro-6,7-dimethoxyisoquinolinium chloride]	6
COc1cc2c(cc1OC)C(c1ccc(C(C)(C)C)cc1)=[N+](Cc1ccc(C(F)(F)F)cc1)CC2.[Cl-] [Compound No. 32, 1-(4-t-butylphenyl)-2-(4-trifluoromethylphenyl)methyl-3,4-dihydro-6,7-dimethoxyisoquinolinium chloride]	6
COc1ccc(C[N+]2=C(C)c3cc(OC)c(OC)cc3CC2)cc1.[Cl-] [Compound No. 33, 1-methyl-2-(4-methoxyphenyl)methyl-3,4-dihydro-6,7-dimethoxyisoquinolinium chloride]	6
CCCCCC1=[N+](Cc2ccc(OC)cc2)CCc2cc(OC)c(OC)cc21.[Cl-] [Compound No. 34, 1-n-pentyl-2-(4-methoxyphenyl)methyl-3,4-dihydro-6,7-dimethoxyisoquinolinium chloride]	4
CCCCCCC1=[N+](Cc2ccc(OC)cc2)CCc2cc(OC)c(OC)cc21.[Cl-] [Compound No. 35, 1-n-hexyl-2-(4-methoxyphenyl)methyl-3,4-dihydro-6,7-dimethoxyisoquinolinium chloride]	4
CCCCCCCC1=[N+](Cc2ccc(OC)cc2)CCc2cc(OC)c(OC)cc21.[Cl-] [Compound No. 36, 1-n-heptyl-2-(4-methoxyphenyl)methyl-3,4-dihydro-6,7-dimethoxyisoquinolinium chloride]	3
CCCCCCCCCCCC1=[N+](Cc2ccc(OC)cc2)CCc2cc(OC)c(OC)cc21.[Cl-] [Compound No. 37, 1-n-undecyl-2-(4-methoxyphenyl)methyl-3,4-dihydro-6,7-dimethoxyisoquinolinium chloride]	2
CCCCCCCCCCCCCCCC1=[N+](Cc2ccc(F)cc2)CCc2cc(OC)c(OC)cc21.[Cl-] [Compound No. 38, 1-n-pentadecyl-2-(4-fluorophenyl)methyl-3,4-dihydro-6,7-dimethoxyisoquinolinium chloride]	1
COc1cc2c(cc1OC)C(C(C)C)=[N+](Cc1ccc(F)c(F)c1)CC2.[Cl-] [Compound No. 40, 1-i-propyl-2-(3,4-difluorophenyl)methyl-3,4-dihydro-6,7-dimethoxyisoquinolinium chloride]	6
CCCCCC1=[N+](Cc2ccc(F)c(F)c2)CCc2cc(OC)c(OC)cc21.[Cl-] [Compound No. 41, 1-n-pentyl-2-(3,4-difluorophenyl)methyl-3,4-dihydro-6,7-dimethoxyisoquinolinium chloride]	6
CCCCCCC1=[N+](Cc2ccc(F)c(F)c2)CCc2cc(OC)c(OC)cc21.[Cl-] [Compound No. 42, 1-n-hexyl-2-(3,4-difluorophenyl)methyl-3,4-dihydro-6,7-dimethoxyisoquinolinium chloride]	4
